Assay results: patent US20180271987A1, “Controlled Cell Delivery Vehicle and Treatment of Tumours” (The University of Nottingham, priority 2015, published 2018)

B1: heparinase III: enzyme used to deplete cell membrane GAGs (protein, UniProt Q59289 25-659, looked up)
Heparin-sulfate lyase: QSSSITRKDFDHINLEYSGLEKVNKAVAAGNYDDAAKALLAYYREKSKAREPDFSNAEKPADIRQPIDKVTREMADKALVHQFQPHKGYGYFDYGKDINWQMWPVKDNEVRWQLHRVKWWQAMALVYHATGDEKYAREWVYQYSDWARKNPLGLSQDNDKFVWRPLEVSDRVQSLPPTFSLFVNSPAFTPAFLMEFLNSYHQQADYLSTHYAEQGNHRLFEAQRNLFAGVSFPEFKDSPRWRQTGISVLNTEIKKQVYADGMQFELSPIYHVAAIDIFLKAYGSAKRVNLEKEFPQSYVQTVENMIMALISISLPDYNTPMFGDSWITDKNFRMAQFASWARVFPANQAIKYFATDGKQGKAPNFLSKALSNAGFYTFRSGWDKNATVMVLKASPPGEFHAQPDNGTFELFIKGRNFTPDAGVFVYSGDEAIMKLRNWYRQTRIHSTLTLDNQNMVITKARQNKWETGNNLDVLTYTNPSYPNLDHQRSVLFINKKYFLVIDRAIGEATGNLGVHWQLKEDSNPVFDKTKNRVYTTYRDGNNLMIQSLNADRTSLNEEEGKVSYVYNKELKRPAFVFEKPKKNAGTQNFVSIVYPYDGQKAPEISIRENKGNDFEKGKLNLTLTINGKQQLVLVP

Tested on: NIH3t3: LSL-eGFP cells
Assay: Cre recombination assay (eGFP activation)
Format: cell-based, mouse
Settings: cells pre-treated with the agent
Text: Previous studies have the avoided issues associated with direct measurement of fluorescent-tagged proteins (such as being unable to distinguish membrane, vesicle or functional cytosolic/nuclear protein) by assaying for the successful nuclear activity of Cre recombinase {Gump, 2010 #2}. This system was used to measure Cre-mediated recombination of a loxP-STOP-loxP (LSL) enhanced green fluorescent protein (eGFP) reporter gene in live NIH3t3 mouse fibroblast cells (NIH3t3: LSL-eGFP cells) as an indicator of cellular uptake (FIG. 18a). This system is rigorous as activation of green fluorescence requires exogenous Cre protein to enter the cell, undergo nuclear-translocation and excise the LSL fragment of the transgene. This must occur in live cells and be non-toxic for the subsequent expression of eGFP. […] To overcome this issue Cre proteins were delivered at limiting dilutions for a short exposure time (1 hour) and the minimum dose required to activate green fluorescence after 48 hours (FIG. 18c) was determined.
To measure Cre Recombinase activity the NIH3t3: LSL-eGFP cell line was created using the pZ/EG plasmid transfection and G-418 selection {Novak, 2000 #6}. […] 2×10^5 cells/well were plated (in 12-well plates), pre-incubated them in DMEM without serum for 1 hour and treated with Cre proteins (0-500 μg/ml) in DMEM without serum. After the Cre incubation cells were trypsinized, replated into complete media and incubated for 2 days. Cells were pre-treated with drugs for the stated time-period in DMEM without serum, were included in Cre-transduction medium and were added after replating. […] After incubations cell were trypsinized, washed, fixed in 4% PFA and % recombined cells was determined by flow cytometry. For mR-Cre-8R and P21-mR-Cre-8R comparisons concentrations of 100 μg/ml and 10 μg/ml were used, respectively and data was expressed as % maximum recombination (i.e. the % relative to the maximum recombination achieved at the stared dose of Cre).
For `C=C1[C@@H](C)[C@H]2[C@H](Cc3ccccc3)NC(=O)[C@]23[C@H](OC(C)=O)/C=C/[C@@](C)(O)C(=O)[C@@H](C)C/C=C/[C@H]3[C@@H]1O` [Cytochalasin D], the “effect of drug or enzyme treatment on functional delivery / recombination of HETD-tagged Cre protein” value was “dose-dependent reduction of functional transduction into cells”.
With `C[C@@H]1[C@H](O)[C@@H](C)/C=C/C=C/CC/C=C/C=C/C=C/C=C/C(O[C@H]2O[C@H](C)[C@@H](O)[C@H](N)[C@@H]2O)CC2O[C@](O)(CC(O)C(O)CCC(O)CC(O)CC(O)CC(=O)O[C@H]1C)CC(O)C2C(=O)O` (stereo partly drawn) [nystatin] the “effect of drug or enzyme treatment on functional delivery / recombination of HETD-tagged Cre protein” value was “dose-dependent inhibition of functional delivery”.
For methyl-β-cyclodextrin, the “effect of drug or enzyme treatment on functional delivery / recombination of HETD-tagged Cre protein” value was “dose-dependent inhibition of functional delivery”.
With `N=C(N)NC(=O)c1nc(Cl)c(N)nc1N` [Amiloride] the “effect of drug or enzyme treatment on functional delivery / recombination of HETD-tagged Cre protein” value was “dose-dependent reduction of functional transduction into cells”.
In the case of B1, the “effect of drug or enzyme treatment on functional delivery / recombination of HETD-tagged Cre protein” value is reported as “reduced recombination to basal-levels”.

Tested on: cells
Assay: not given
Settings: literature; cited from earlier work
In the case of Arg-Gly-Asp [RGD], the “increase of nanoparticle uptake” value is listed as 50%.
